Assay results published in paper PMC13233820, “Recruitment of Mre11 to recombination sites during meiosis” (Nature Communications, 2026).

Key:
[1] = system: supercoiled pUC19 plasmid DNA; assay: In vitro condensation assay of Mre11 (fluorescence microscopy); type: biochemical
Procedure: Fig. 1 Mre11 and the MRX complex assemble DNA-dependent condensates in vitro. a, c Effect of the presence of plasmid DNA on condensation of (a) Alexa488-labeled Mre11 (n = 11 and 9 fields of view for reactions without and with DNA, respectively) and (c) eGFP-tagged MRX (n = 11 (- DNA) and 9 ( + DNA)). Experiments were performed without PEG. b, d Effect of DNase I, in the absence of PEG, on (b) Mre11 (n = 9 (no treatment) and 11 (DNase I)) and (d) MRX (n = 9 (no treatment) and 11 (DNase I)) condensates. Condensates were pre-assembled for 20 min with 5.7 nM pUC19 prior to challenge. Quantification represents total foci intensity (green) in a field of view and total number of foci per 1000 µm^2 (magenta). Foci intensity is normalized to the mean intensity of samples with DNA for (a, c) and untreated samples for (b, d). […] Quantification represents total foci intensity (green) in a field of view (normalized to the mean of + PEG images) and total number of foci per 1000 µm^2 (magenta). […]
Fig. 2 The C-terminal IDR of Mre11 is required for condensation. a AlphaFold2 predicted model of Mre11 (AF-P32829-F1-v4). […] Quantification represents total fluorescence intensity (green) in a field of view and total number of foci per 1000 µm^2 (magenta). […]

pUC19 plasmid substrate = assay: Gel shift assay, plasmid DNA binding; conditions: 1 nM pUC19; reduced-mobility complexes (supershift) at higher concentration
Procedure: Proteins were diluted to their appropriate working concentrations in their respective storage buffers. […] Reactions were assembled at 30 °C for 30 mins and resolved in a 1% agarose (SeaKem LE Agarose, Lonza) at 60 V for 120 mins at 4 °C. Gels were stained with SYBR Gold Nucleic Acid Gel Stain (S11497, Invitrogen) for 40 mins and visualized with Amersham Typhoon biomolecular imager (Cytiva).

Mer2 condensates = assay: Colocalization of fluorescently-labeled Mer2 and Mre11 condensates; type: binding, Saccharomyces cerevisiae; conditions: condensates assembled separately on DNA then incubated together
Procedure: Fig. 4 Mer2 recruits Mre11 during meiosis. a Effect of 1,6-hexanediol treatment on meiotic Mre11^myc foci visualized by immunofluorescence analysis of yeast nuclear spreads 4 hours after transfer to SPM. […] At least 22 tetrads were dissected for each strain (n ≥ 88 spores). e Quantification of sub-population of cells showing discrete Mre11 foci and aggregated Mre11 foci in indicated strains. Images used for analysis were from the same experiments in (b) and (d). f Colocalization of fluorescently-labeled Mer2 with wild-type or truncated Mre11. […] The number of images analyzed for each sample were WT (n = 11), Mre11^Δ10-270 (n = 13), Mre11^Δ290-472 (n = 15), Mre11^ΔIDR (n = 10), Mre11^ΔC49 (n = 13). Error bars represent mean ± SD from the indicated (n) fields of view. p-values compared to Mre11-WT are: Mre11^Δ10-270 (0.006), Mre11^Δ290-472 (0.0003), Mre11^ΔIDR (<0.0001), Mre11^ΔC49 (<0.0001). g Colocalization of fluorescently-labeled Mre11-C49 and Mer2. Condensates were assembled by mixing 800 nM of ^mScarletMre11-C49 and 200 nM of ^eGFPMer2 for 30 min prior to imaging. […]
Proteins were diluted to a 10 × stock of their appropriate working concentrations in their respective storage buffers. […] Images were analyzed with ImageJ using a custom-made script. […] Masked foci were counted, and the intensity inside the focus mask was integrated. […] Data were analyzed using Graphpad Prism 10.4.0.

With “Mre11: full-length yeast Mre11 nuclease, recombinant from Sf9 cells” the “Condensate formation (in words)” value ([1]; in the presence of plasmid DNA) was “form large clusters visible by fluorescence microscopy”, the “Protein concentration above which foci intensity steeply increases” value ([1]; protein titration, plasmid DNA, 5% PEG) was “above 200 nM” and the “Protein concentration up to which fast-migrating complexes form” value (pUC19 plasmid substrate) was roughly 25 nM. For the same substance, the “Colocalization with Mer2 condensates (in words)” value (Mer2 condensates) was “nearly absolute colocalization”.
